“And” between values parts separate entries of the source, which are not always exact repeats. Identical values can stand only once. Toxic doses and inconclusive results are not listed.
Test system: BDF1 mice, P388 leukemia ip, median survival T/C
Test: NCI In Vivo Anticancer Drug Screen. Data for tumor model P388 Leukemia (intraperitoneal) in B6D2F1 (BDF1) mice
Settings: endpoint: median survival time, higher = longer survival
In short: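 Mice carrying the transplantable tumour receive compound or vehicle. Survival is followed in each arm, and the treated measure is divided by the vehicle measure.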

[1] = dose: 12.5 mg/kg/injection, schedule: Q01DX009 (ip), vehicle: Klucel (hydroxypropylcellulose) (HPC)
[2] = dose: 25.0 mg/kg/injection, schedule: Q01DX009 (ip), vehicle: Klucel (hydroxypropylcellulose) (HPC)
[3] = dose: 100.0 mg/kg/injection, schedule: Q04DX003 (ip), vehicle: saline
[4] = dose: 200.0 mg/kg/injection, schedule: Q04DX003 (ip), vehicle: saline
[5] = dose: 25.0 mg/kg/injection, schedule: Q01DX009 (ip), vehicle: saline
[6] = dose: 50.0 mg/kg/injection, schedule: Q01DX009 (ip), vehicle: saline
[7] = dose: 50.0 mg/kg/injection, schedule: Q01DX009 (ip), vehicle: saline with Tween-80
[8] = dose: 50.0 mg/kg/injection, schedule: Q04DX003 (ip), vehicle: saline with Tween-80
[9] = dose: 100.0 mg/kg/injection, schedule: Q01DX009 (ip), vehicle: saline with Tween-80
[10] = dose: 100.0 mg/kg/injection, schedule: Q04DX003 (ip), vehicle: saline with Tween-80
[11] = dose: 200.0 mg/kg/injection, schedule: Q01DX009 (ip), vehicle: saline with Tween-80
[12] = dose: 200.0 mg/kg/injection, schedule: Q04DX003 (ip), vehicle: saline with Tween-80
[13] = dose: 400.0 mg/kg/injection, schedule: Q01DX009 (ip), vehicle: saline with Tween-80
[14] = dose: 400.0 mg/kg/injection, schedule: Q04DX003 (ip), vehicle: saline with Tween-80
[15] = dose: 25.0 mg/kg/injection, schedule: Q04DX003 (ip), vehicle: saline

`C[n+]1ccc(Nc2ccc(NC(=O)c3ccc(C(=O)Nc4ccc(Nc5cc[n+](C)c(N)n5)cc4)cc3)cc2)nc1N` was tested, and the T/C (dose: 6.3 mg/kg/injection, schedule: Q01DX007 (ip), vehicle: Klucel (hydroxypropylcellulose) (HPC)) was 180 % of control, the T/C (dose: 6.3 mg/kg/injection, schedule: Q01DX009 (ip), vehicle: saline) was 155 % of control and the T/C (dose: 9.6 mg/kg/injection, schedule: Q01DX007 (ip), vehicle: Klucel (hydroxypropylcellulose) (HPC)) was 180 % of control. The T/C (dose: 9.6 mg/kg/injection, schedule: Q01DX009 (ip), vehicle: saline) was 161 % of control, the T/C [1] was 190 % of control and the T/C (dose: 14.0 mg/kg/injection, schedule: Q01DX007 (ip), vehicle: Klucel (hydroxypropylcellulose) (HPC)) was 175 % of control. For the same compound, the T/C (dose: 14.0 mg/kg/injection, schedule: Q01DX009 (ip), vehicle: saline) was 150 % of control, the T/C [2] was 172 % of control and the T/C (dose: 50.0 mg/kg/injection, schedule: Q01DX009 (ip), vehicle: Klucel (hydroxypropylcellulose) (HPC)) was 204 % of control. The T/C (dose: 100.0 mg/kg/injection, schedule: Q01DX009 (ip), vehicle: Klucel (hydroxypropylcellulose) (HPC)) was 259 % of control, the T/C [3] was 172 % of control and the T/C [4] was 163 % of control.
In the case of `CCCCN(CCCC)c1ccc([N+](=O)[O-])c2no[n+]([O-])c12`, the T/C (dose: 15.0 mg/kg/injection, schedule: Q01DX009 (ip), vehicle: saline with Tween-80) is reported as 96 % of control, the T/C (dose: 30.0 mg/kg/injection, schedule: Q01DX009 (ip), vehicle: saline with Tween-80) is reported as 92 % of control and the T/C (dose: 60.0 mg/kg/injection, schedule: Q01DX009 (ip), vehicle: saline with Tween-80) is reported as 91 % of control.
For `Cc1nc2ccc(O)cc2cc1CO`, the T/C [5] was 95 % of control, the T/C [6] was 100 % of control and the T/C (dose: 100.0 mg/kg/injection, schedule: Q01DX009 (ip), vehicle: saline) was 99 % of control. The T/C (dose: 200.0 mg/kg/injection, schedule: Q01DX009 (ip), vehicle: saline) was 109 % of control and the T/C (dose: 400.0 mg/kg/injection, schedule: Q01DX009 (ip), vehicle: saline) was 111 % of control.
In the case of `O=C(O)c1c[nH]n2c(=S)ncnc12`, the T/C [7] is reported as 93 % of control, the T/C [8] is reported as 104 % of control and the T/C [9] is reported as 104 % of control. For the same compound, the T/C [10] was 91 % of control, the T/C [11] was 100 % of control and the T/C [12] was 87 % of control. The T/C [13] was 93 % of control and the T/C [14] was 95 % of control.
In the case of `NC(=O)c1ccc(Cl)c(Cl)c1`, the T/C (dose: 100.0 mg/kg/injection, schedule: Q04DX003 (ip), vehicle: other) is reported as 116 % of control and the T/C (dose: 200.0 mg/kg/injection, schedule: Q04DX003 (ip), vehicle: other) is reported as 122 % of control.
`CN(C(=S)SSC(=S)N(C)c1ccccc1)c1ccccc1` was tested, and the T/C (dose: 12.5 mg/kg/injection, schedule: Q01DX009 (ip), vehicle: saline with Tween-80) was 98 % of control, the T/C (dose: 25.0 mg/kg/injection, schedule: Q01DX009 (ip), vehicle: saline with Tween-80) was 99 % of control and the T/C [7] was 100 % of control. The T/C [9] was 92 % of control, the T/C (dose: 200.0 mg/kg/injection, schedule: Q01DX001 (ip), vehicle: Klucel (hydroxypropylcellulose) (HPC)) was 91 % of control and the T/C (dose: 400.0 mg/kg/injection, schedule: Q01DX001 (ip), vehicle: Klucel (hydroxypropylcellulose) (HPC)) was 95 % of control.
For `COc1ccccc1C(=O)c1ccccc1Cc1cccc2ccccc12`, the T/C [7] was 92 % of control, the T/C [9] was 92 % of control and the T/C [11] was 92 % of control. The T/C [13] was 97 % of control.
For `COc1cccc(/C(C)=N\Nc2ccc([N+](=O)[O-])cc2[N+](=O)[O-])c1OC`, the T/C [7] was 94 % of control, the T/C [8] was 100 % of control and the T/C [9] was 100 % of control. For the same compound, the T/C [10] was 102 % of control, the T/C [11] was 91 % of control and the T/C [12] was 102 % of control. The T/C [13] was 94 % of control and the T/C [14] was 97 % of control.
`O=C(c1ccccc1)C(SSC(C(=O)c1ccccc1)C(=O)c1ccccc1)C(=O)c1ccccc1` was tested, and the T/C [7] was 100 % of control, the T/C [9] was 112 % of control and the T/C [11] was 103 % of control.
`CC(=O)OCC(=O)[C@@]1(O)CC[C@H]2[C@@H]3C=C(C)C4=CC(=O)CC[C@]4(C)[C@H]3[C@@H](O)C[C@@]21C` was tested, and the T/C [9] was 108 % of control, the T/C [10] was 95 % of control and the T/C [11] was 91 % of control. The T/C [12] was 95 % of control, the T/C [13] was 108 % of control and the T/C [14] was 95 % of control.
With `O=C1/C(=C/c2ccccc2)CCCC1/C=C/c1ccccc1` (configuration not stated) the T/C (dose: 100.0 mg/kg/injection, schedule: Q04DX003 (ip), vehicle: Klucel (hydroxypropylcellulose) (HPC)) was 100 % of control, the T/C (dose: 200.0 mg/kg/injection, schedule: Q04DX003 (ip), vehicle: Klucel (hydroxypropylcellulose) (HPC)) was 104 % of control and the T/C (dose: 400.0 mg/kg/injection, schedule: Q04DX003 (ip), vehicle: Klucel (hydroxypropylcellulose) (HPC)) was 104 % of control.
For `Cc1cc(NC(=O)NCCOc2ccc(N3C(N)=NC(N)=NC3(C)C)cc2Cl)ccc1S(=O)(=O)F`, the T/C (dose: 12.5 mg/kg/injection, schedule: Q01DX009 (ip), vehicle: saline) was 100 % of control, the T/C [5] was 113 % of control and the T/C [6] was 122 % of control.
With `NC(=O)N/N=C(\CF)C(=O)O` the T/C (dose: 6.0 mg/kg/injection, schedule: Q01DX009 (ip), vehicle: Klucel (hydroxypropylcellulose) (HPC)) was 105 % of control, the T/C (dose: 12.0 mg/kg/injection, schedule: Q01DX009 (ip), vehicle: Klucel (hydroxypropylcellulose) (HPC)) was 105 % of control and the T/C (dose: 24.0 mg/kg/injection, schedule: Q01DX009 (ip), vehicle: Klucel (hydroxypropylcellulose) (HPC)) was 115 % of control. For the same compound, the T/C (dose: 48.0 mg/kg/injection, schedule: Q01DX009 (ip), vehicle: Klucel (hydroxypropylcellulose) (HPC)) was 105 % of control.
In the case of `O=[N+]([O-])c1ccc(-[n+]2nc(-c3ccccc3)nn2-c2ccc(I)cc2)cc1`, the T/C [1] is reported as 100 % of control, the T/C (dose: 16.5 mg/kg/injection, schedule: Q04DX003 (ip), vehicle: Klucel (hydroxypropylcellulose) (HPC)) is reported as 90 % of control and the T/C (dose: 16.5 mg/kg/injection, schedule: Q04DX003 (ip), vehicle: saline) is reported as 122 % of control. The T/C [2] was 110 % of control, the T/C (dose: 25.0 mg/kg/injection, schedule: Q04DX003 (ip), vehicle: Klucel (hydroxypropylcellulose) (HPC)) was 109 % of control and the T/C [15] was 109 % of control. The T/C (dose: 37.5 mg/kg/injection, schedule: Q04DX003 (ip), vehicle: Klucel (hydroxypropylcellulose) (HPC)) was 100 % of control and the T/C (dose: 37.5 mg/kg/injection, schedule: Q04DX003 (ip), vehicle: saline) was 122 % of control.
With `O=C(Oc1ccc([N+](=O)[O-])cc1)c1ccc(CBr)cc1` the T/C [5] was 95 % of control, the T/C [6] was 100 % of control and the T/C [3] was 90 % of control. The T/C [4] was 86 % of control.
In the case of `COC(=O)[C@@]12OC[C@]34[C@H]([C@@H](O)[C@@H]1O)[C@@]1(C)CC(=O)C(O)=C(C)[C@@H]1C[C@H]3OC(=O)[C@H](OC(=O)c1ccccc1)[C@@H]24`, the T/C (dose: 31.0 micrograms/kg/injection, schedule: Q01DX009 (ip), vehicle: saline + alcohol) is reported as 86 % of control and 90 % of control and 100 % of control, the T/C (dose: 61.0 micrograms/kg/injection, schedule: Q01DX009 (ip), vehicle: saline + alcohol) is reported as 100 % of control and the T/C (dose: 62.0 micrograms/kg/injection, schedule: Q01DX009 (ip), vehicle: saline + alcohol) is reported as 113 % of control. For the same compound, the T/C (dose: 125.0 micrograms/kg/injection, schedule: Q01DX009 (ip), vehicle: saline + alcohol) was 95 % of control and 109 % of control, the T/C (dose: 250.0 micrograms/kg/injection, schedule: Q01DX009 (ip), vehicle: saline + alcohol) was 100 % of control and 109 % of control and the T/C (dose: 500.0 micrograms/kg/injection, schedule: Q01DX009 (ip), vehicle: saline + alcohol) was 100 % of control and 113 % of control. For the same compound, the T/C (dose: 1000.0 micrograms/kg/injection, schedule: Q01DX009 (ip), vehicle: saline + alcohol) was 100 % of control and 118 % of control and the T/C (dose: 4000.0 micrograms/kg/injection, schedule: Q01DX009 (ip), vehicle: saline + alcohol) was 109 % of control.
In the case of `NC(CO)CSCc1ccccc1` (configuration not stated), the T/C (dose: 12.5 mg/kg/injection, schedule: Q04DX003 (ip), vehicle: saline) is reported as 114 % of control, the T/C [15] is reported as 104 % of control and the T/C (dose: 50.0 mg/kg/injection, schedule: Q04DX003 (ip), vehicle: saline) is reported as 98 % of control. For the same compound, the T/C [3] was 97 % of control.
`CC(O)(C(N)=O)c1cc(Cl)ccc1Cl` (configuration not stated) was tested, and the T/C (dose: 100.0 mg/kg/injection, schedule: Q01DX009 (ip), vehicle: water) was 110 % of control, the T/C (dose: 100.0 mg/kg/injection, schedule: Q04DX003 (ip), vehicle: water) was 109 % of control and the T/C (dose: 200.0 mg/kg/injection, schedule: Q01DX009 (ip), vehicle: water) was 110 % of control. The T/C (dose: 200.0 mg/kg/injection, schedule: Q04DX003 (ip), vehicle: water) was 100 % of control, the T/C (dose: 400.0 mg/kg/injection, schedule: Q01DX009 (ip), vehicle: water) was 90 % of control and the T/C (dose: 400.0 mg/kg/injection, schedule: Q04DX003 (ip), vehicle: water) was 95 % of control.
